From ChEMBL document CHEMBL1201862, “PubChem BioAssay data set” (2004)
The source made the active and inactive calls.

Legend:
[1] = target: Disintegrin and metalloproteinase domain-containing protein 17 (Homo sapiens, UniProt P78536); assay: exosite inhibitors of ADAM17, dose response, biochemical (AID 743260)
[2] = inhibition of ADAM10 peptide cleavage – biochemical, FRET peptide substrate, recombinant human ADAM10, selectivity assay for ADAM17 exosite inhibitor project, dose response (AID 743259);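 note: ADAM10 enzyme cleaving a FRET peptide substrate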
[3] = target: T1, Sentrin-specific protease 7 (Homo sapiens, UniProt Q9BQF6); type: functional;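 note: Luminescence-based dose-response confirmation of ultra-high-throughput screening hits, measuring inhibition of SENP7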
T1 sequence (Q9BQF6 whole entry): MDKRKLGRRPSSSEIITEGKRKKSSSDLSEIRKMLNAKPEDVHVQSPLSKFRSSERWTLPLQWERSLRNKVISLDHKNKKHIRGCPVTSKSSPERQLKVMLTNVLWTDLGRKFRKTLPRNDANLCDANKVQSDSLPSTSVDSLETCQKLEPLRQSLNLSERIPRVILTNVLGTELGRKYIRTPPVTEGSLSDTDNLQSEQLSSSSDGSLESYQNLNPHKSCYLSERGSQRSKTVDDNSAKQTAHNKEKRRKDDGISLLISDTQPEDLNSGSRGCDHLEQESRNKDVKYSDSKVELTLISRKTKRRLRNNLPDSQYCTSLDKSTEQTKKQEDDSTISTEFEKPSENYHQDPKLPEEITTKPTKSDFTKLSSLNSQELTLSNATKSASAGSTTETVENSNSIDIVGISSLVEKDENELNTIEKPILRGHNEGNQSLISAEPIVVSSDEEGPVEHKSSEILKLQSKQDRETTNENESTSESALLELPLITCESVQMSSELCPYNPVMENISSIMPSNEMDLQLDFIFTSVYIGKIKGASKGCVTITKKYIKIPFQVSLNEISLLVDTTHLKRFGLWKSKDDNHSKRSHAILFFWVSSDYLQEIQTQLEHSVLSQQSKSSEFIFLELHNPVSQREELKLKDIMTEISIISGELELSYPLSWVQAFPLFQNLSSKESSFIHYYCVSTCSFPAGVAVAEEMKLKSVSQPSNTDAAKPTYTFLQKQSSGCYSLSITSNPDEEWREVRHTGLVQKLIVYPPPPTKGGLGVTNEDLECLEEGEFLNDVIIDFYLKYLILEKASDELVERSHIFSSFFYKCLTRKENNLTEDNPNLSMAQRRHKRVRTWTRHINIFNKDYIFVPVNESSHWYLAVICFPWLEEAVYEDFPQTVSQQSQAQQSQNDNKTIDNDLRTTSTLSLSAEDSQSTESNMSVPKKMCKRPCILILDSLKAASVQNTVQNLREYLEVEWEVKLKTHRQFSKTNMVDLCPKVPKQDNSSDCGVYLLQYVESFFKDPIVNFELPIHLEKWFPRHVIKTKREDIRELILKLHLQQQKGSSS

Caspase-3 = target: T2, Caspase-3 (Homo sapiens, UniProt P42574); type: functional;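 note: Dose-response selectivity test against caspase-3 for candidate inhibitors of sentrin-specific proteases (SENPs)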
T2 sequence (P42574 whole entry): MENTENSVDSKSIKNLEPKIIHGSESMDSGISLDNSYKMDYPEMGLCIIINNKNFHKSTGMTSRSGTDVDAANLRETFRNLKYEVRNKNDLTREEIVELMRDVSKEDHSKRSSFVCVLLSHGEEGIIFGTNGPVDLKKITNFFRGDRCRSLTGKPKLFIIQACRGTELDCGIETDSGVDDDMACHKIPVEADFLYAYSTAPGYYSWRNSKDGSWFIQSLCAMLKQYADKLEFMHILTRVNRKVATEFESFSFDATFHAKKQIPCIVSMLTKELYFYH

[4] = target: T3, Sentrin-specific protease 6 (Homo sapiens, UniProt Q9GZR1); type: functional;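 note: Luminescence-based dose-response confirmatory assay of SENP6 inhibition, following up an ultra-high-throughput screen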
T3 sequence (Q9GZR1 whole entry): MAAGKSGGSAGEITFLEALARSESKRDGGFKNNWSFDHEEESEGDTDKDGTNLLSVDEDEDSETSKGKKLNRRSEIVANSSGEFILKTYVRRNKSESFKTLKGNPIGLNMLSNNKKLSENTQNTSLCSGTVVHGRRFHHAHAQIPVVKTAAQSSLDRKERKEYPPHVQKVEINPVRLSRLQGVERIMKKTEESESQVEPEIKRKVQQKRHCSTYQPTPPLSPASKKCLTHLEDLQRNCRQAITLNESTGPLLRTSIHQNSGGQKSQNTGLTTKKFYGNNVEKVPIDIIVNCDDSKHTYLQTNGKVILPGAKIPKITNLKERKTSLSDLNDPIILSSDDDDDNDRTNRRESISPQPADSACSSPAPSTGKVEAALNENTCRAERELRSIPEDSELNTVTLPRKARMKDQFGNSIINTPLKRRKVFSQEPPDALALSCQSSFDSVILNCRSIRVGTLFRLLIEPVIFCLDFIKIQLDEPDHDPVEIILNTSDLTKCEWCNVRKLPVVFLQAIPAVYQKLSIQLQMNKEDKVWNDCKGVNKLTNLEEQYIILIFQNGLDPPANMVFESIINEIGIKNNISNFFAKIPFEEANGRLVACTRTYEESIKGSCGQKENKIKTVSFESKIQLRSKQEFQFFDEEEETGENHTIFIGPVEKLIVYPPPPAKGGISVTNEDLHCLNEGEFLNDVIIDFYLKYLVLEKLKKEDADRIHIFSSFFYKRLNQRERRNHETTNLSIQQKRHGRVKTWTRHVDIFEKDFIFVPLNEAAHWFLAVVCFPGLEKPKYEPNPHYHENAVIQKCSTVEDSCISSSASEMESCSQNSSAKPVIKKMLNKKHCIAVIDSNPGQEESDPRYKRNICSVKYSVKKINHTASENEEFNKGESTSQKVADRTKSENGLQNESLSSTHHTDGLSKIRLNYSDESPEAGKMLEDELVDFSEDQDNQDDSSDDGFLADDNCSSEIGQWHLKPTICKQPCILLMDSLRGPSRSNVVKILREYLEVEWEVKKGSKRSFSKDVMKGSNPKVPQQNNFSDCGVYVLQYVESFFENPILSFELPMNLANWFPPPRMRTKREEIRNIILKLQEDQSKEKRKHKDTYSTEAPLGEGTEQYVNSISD

[5] = microbe, parasite or virus in culture; type: functional; details: Mycobacterium tuberculosis
[6] = target: T4, Tyrosyl-DNA phosphodiesterase 2 (Homo sapiens, UniProt O95551); assay: potency against TDP2 phosphodiesterase activity – biochemical, epi absorbance, IC50, dose response (AID 743297)
T4 sequence (O95551 whole entry): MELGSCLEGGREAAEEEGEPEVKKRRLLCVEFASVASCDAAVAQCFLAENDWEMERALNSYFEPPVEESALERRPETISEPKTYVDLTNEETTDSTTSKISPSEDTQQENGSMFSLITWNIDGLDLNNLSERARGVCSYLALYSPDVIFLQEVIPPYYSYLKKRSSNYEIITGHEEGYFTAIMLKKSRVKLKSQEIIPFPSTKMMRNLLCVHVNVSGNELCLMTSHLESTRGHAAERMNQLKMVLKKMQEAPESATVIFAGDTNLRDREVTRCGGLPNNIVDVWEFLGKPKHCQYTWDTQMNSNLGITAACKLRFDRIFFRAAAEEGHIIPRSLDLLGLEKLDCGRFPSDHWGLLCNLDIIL

INS1 = assay: INS-1E survival protection against cytokine death – cell-based, luminescence, retest, dose response (AID 449756); type: functional; details: Rattus norvegicus;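 note: cell death triggered by IL-1 beta plus TNF-alpha plus IFN-gamma mixture; protective hits raise ATP signal compared with cytokine alone wells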
[7] = target: T5, Heat shock factor protein 1 (Mus musculus, UniProt P38532); assay: enhancement of HSF1-driven luciferase signal – cell-based, NIH3T3, luminescence, dose retest, confirmation (AID 435004); type: functional;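 note: stress induced by proteasome inhibitor MG132 added 30 min after compound; luciferase reporter driven by HSF1 response element in NIH3T3 cells; actives raise luminescence as potentiators of the MG132 stress response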
T5 sequence (P38532 whole entry): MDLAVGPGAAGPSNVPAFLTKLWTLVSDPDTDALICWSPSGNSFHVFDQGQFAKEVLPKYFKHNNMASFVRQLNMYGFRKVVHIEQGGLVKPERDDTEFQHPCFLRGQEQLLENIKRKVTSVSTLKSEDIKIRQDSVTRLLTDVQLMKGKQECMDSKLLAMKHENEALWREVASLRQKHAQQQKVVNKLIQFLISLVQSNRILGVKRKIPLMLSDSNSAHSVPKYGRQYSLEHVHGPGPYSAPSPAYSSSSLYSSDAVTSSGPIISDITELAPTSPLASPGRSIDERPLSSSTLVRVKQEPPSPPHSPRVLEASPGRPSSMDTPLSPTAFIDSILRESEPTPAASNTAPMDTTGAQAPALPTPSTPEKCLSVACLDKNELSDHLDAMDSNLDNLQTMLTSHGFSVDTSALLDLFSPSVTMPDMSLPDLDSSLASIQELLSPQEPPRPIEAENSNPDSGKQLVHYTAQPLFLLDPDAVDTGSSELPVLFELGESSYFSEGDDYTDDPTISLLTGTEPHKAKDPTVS

[8] = target: T6, Sentrin-specific protease 8 (Homo sapiens, UniProt Q96LD8); type: functional
T6 sequence (Q96LD8 whole entry): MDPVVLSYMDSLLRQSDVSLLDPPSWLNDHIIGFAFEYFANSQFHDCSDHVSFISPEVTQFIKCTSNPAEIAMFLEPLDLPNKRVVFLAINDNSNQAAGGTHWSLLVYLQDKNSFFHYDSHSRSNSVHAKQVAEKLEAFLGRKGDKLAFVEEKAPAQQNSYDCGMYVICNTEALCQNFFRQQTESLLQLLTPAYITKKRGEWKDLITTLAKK

Vero = assay: viability of Vero cells under compound – cytotoxicity control for flavivirus capping enzyme inhibitors (AID 588742); type: functional; details: Chlorocebus sabaeus
Genome polyprotein = Genome polyprotein (dengue virus type 2, UniProt P29990); assay: flavivirus cap methylation enzyme inhibition – biochemical, confirmation dose response, primary screen (AID 588689); type: functional
Caspase-6 = target: T7, Caspase-6 (Homo sapiens, UniProt P55212); assay: inhibition of CASP6 peptide cleavage – biochemical, VEID-R110 fluorescence, cherry-pick, dose response (AID 720632)
T7 sequence (P55212 whole entry): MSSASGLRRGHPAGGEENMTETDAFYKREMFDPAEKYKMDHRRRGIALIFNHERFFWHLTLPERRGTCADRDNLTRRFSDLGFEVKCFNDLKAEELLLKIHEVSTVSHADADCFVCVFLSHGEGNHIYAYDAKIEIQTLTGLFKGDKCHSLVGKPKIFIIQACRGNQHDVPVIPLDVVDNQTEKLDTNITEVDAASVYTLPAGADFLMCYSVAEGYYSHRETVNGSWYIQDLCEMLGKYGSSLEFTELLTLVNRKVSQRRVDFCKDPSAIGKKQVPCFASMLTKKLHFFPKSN

[9] = reduction of Shn3 3'UTR-driven luciferase in osteoblasts – cell-based, Clone20 osteoblasts, firefly luciferase, cherry-picked, dose response (AID 624132); type: functional;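 note: firefly luciferase luminescence from reporter carrying the Shn3 3'UTR in osteoblasts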
[10] = loss of viability in HepG2 cells – cell-based, CellTiter-Glo, cherry-picked, cytotoxicity control for Shn3 inhibitor project, dose response (AID 624134); type: functional
[11] = non-specific 3'UTR reporter inhibition in Clone20-Shn3RL – cell-based, Renilla luciferase, cherry-picked, counter-screen for Shn3 inhibitor project, dose response (AID 624133); type: functional
[12] = target: Endoplasmic reticulum aminopeptidase 1 (Homo sapiens, UniProt Q9NZ08); assay: inhibition of human ERAP1 enzyme activity – biochemical, cherry-pick, set 2, plate reader, dose response (AID 743314)
[13] = target: T6, Sentrin-specific protease 8; type: functional; remark: listed apart in the source
[14] = target: T6, Sentrin-specific protease 8; type: functional; remark: listed apart in the source
[15] = target: T8, Replicative DNA helicase DnaB (Mycobacterium tuberculosis, UniProt P9WMR3); assay: DnaB intein splicing inhibitors, dose response, biochemical, cell-free fluorescence (AID 449749); type: functional
T8 sequence (P9WMR3 whole entry): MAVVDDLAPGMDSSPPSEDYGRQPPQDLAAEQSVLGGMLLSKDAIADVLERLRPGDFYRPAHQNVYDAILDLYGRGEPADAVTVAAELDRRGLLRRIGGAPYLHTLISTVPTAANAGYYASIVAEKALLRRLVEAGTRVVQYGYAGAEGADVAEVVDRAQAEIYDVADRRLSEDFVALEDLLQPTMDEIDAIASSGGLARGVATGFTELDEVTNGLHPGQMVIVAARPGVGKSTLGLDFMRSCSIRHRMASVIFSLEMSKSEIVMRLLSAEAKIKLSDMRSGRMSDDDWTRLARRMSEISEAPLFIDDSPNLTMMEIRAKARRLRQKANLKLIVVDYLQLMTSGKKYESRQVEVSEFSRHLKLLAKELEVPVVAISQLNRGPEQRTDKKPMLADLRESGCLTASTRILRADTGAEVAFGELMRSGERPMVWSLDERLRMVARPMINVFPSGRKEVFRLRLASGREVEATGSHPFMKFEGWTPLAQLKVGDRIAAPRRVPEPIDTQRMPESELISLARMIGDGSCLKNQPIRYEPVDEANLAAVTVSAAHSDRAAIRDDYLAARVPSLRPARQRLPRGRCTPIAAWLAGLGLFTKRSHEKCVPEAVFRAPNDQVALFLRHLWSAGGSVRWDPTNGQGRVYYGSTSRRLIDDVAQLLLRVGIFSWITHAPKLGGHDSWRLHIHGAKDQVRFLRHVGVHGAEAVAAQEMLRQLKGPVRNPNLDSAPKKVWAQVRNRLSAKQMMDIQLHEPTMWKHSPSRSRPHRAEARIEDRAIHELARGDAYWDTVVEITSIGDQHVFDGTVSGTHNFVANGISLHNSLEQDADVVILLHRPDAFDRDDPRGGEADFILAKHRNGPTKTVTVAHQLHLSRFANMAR

Chain of Disintegrin and metalloproteinase domain-containing protein 17 (P78536 whole entry, the tested form may be a part): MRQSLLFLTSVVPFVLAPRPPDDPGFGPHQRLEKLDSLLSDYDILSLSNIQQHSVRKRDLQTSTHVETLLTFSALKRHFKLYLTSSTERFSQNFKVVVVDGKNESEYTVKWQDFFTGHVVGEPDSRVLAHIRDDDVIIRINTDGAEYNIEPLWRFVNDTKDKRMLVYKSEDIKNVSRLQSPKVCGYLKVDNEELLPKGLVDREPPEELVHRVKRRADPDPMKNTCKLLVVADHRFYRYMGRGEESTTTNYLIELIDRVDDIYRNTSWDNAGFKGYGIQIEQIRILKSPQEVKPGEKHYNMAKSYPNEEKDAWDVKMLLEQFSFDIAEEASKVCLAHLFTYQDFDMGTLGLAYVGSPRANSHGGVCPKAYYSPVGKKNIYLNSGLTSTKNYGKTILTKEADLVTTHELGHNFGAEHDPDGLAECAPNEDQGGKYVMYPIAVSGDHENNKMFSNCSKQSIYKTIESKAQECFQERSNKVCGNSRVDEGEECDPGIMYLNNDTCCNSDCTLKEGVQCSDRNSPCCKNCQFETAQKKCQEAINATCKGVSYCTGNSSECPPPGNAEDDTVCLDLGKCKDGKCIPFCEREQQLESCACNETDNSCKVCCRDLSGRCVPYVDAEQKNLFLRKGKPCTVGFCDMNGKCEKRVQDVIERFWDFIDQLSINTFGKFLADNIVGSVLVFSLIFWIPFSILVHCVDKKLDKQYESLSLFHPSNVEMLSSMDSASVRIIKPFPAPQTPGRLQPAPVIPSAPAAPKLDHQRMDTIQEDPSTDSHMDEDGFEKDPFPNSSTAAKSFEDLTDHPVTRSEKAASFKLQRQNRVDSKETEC
Chain of Endoplasmic reticulum aminopeptidase 1 (Q9NZ08 whole entry): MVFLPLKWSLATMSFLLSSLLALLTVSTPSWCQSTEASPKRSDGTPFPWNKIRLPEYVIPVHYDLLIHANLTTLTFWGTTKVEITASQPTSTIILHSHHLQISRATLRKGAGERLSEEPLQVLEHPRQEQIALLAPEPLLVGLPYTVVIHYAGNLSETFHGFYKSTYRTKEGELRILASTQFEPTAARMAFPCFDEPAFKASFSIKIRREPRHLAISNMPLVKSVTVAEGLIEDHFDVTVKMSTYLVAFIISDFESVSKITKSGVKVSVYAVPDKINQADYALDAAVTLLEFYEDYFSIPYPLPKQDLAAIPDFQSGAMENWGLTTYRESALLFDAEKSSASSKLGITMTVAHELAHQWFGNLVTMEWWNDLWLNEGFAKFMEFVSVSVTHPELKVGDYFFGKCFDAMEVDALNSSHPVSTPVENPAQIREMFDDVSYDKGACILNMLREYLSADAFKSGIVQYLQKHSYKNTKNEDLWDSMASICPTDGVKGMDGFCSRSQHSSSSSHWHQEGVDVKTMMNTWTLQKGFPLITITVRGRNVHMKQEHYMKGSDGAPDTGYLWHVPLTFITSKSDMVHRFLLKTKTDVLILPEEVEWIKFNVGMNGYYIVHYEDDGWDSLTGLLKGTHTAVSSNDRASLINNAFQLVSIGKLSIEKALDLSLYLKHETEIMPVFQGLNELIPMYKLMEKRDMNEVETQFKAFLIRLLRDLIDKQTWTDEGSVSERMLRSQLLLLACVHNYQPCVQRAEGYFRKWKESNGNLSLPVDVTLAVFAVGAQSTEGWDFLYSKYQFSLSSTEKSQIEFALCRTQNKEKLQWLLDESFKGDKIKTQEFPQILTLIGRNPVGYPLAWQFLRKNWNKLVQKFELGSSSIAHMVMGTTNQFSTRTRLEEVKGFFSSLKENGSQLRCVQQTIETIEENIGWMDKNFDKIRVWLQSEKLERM
Chain of Genome polyprotein (P29990 2492-3391 limits assumed): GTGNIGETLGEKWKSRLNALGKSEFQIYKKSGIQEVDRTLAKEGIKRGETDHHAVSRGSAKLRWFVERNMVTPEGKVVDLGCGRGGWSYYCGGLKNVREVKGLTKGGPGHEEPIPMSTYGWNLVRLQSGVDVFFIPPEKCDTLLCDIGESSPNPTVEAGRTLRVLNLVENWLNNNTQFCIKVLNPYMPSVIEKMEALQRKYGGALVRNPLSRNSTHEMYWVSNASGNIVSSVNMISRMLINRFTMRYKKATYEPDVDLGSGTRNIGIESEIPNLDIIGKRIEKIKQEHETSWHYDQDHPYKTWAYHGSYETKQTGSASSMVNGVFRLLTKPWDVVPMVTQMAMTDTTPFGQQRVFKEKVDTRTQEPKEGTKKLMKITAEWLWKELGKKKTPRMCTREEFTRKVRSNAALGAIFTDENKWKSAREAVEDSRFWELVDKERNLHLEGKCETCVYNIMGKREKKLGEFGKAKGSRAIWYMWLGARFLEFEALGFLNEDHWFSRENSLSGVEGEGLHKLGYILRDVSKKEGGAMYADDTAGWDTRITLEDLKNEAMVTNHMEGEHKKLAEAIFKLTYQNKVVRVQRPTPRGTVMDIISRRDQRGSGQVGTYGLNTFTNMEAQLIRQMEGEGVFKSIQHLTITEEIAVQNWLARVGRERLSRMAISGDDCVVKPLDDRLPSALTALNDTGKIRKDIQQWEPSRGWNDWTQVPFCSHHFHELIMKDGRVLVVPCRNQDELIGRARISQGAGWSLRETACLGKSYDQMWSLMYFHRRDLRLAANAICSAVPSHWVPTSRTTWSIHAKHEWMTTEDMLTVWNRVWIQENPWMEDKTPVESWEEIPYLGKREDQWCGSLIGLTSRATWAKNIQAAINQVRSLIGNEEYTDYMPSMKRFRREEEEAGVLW

Structure (SMILES): COc1ccc(NC(C)C(=O)N/N=C/c2ccccc2OCc2ccc(Br)cc2)cc1 (stereo not given)
- IC50 [1]: > 69.5 µM (inactive)
- IC50 [2]: > 69.5 µM (inactive)

Structure (SMILES): Clc1ccc(OCCOCCOc2cccc3cccnc23)c(Br)c1
- IC50 [1]: > 69.5 µM (inactive)
- IC50 [2]: > 69.5 µM (inactive)

Structure (SMILES): S=C(Nc1ccc(Cl)cc1)Nc1cccc2cnccc12
- IC50 [3]: 6.24 µM (active)
- IC50 (Caspase-3): 11.7 µM (active)
- IC50 [4]: 2.87 µM (active)
- CC50 [5]: > 40 µM (active)
- IC50 [6]: 130 µM (inactive)
- AC50 (INS1): > 260 µM (inactive)
- EC50 [7]: > 260 µM (inactive)
- IC50 [8]: 5.49 µM (active)

Structure (SMILES): CC(=O)N1CCc2c(sc(NC(=O)c3ccc([N+](=O)[O-])o3)c2C(N)=O)C1
- CC50 (Vero): 4.1 µM (active)
- IC50 (Genome polyprotein): 89.3 µM (active)
- AC50 (Caspase-6): 12.7 µM (active)
- AC50 [9]: 1.85 µM (active)
- AC50 [10]: 20 µM (active)
- AC50 [11]: 13.1 µM (active)

Structure (SMILES): CN1[C@@H]2Cn3c(ccc(/C=C/c4ccccc4)c3=O)[C@H]1[C@@H](C(=O)NC1CCCC1)[C@@H]2CO
- AC50 [12]: 9.03 µM (active)

Structure (SMILES): Nc1ccc(N2CCOCC2)c2nonc12
- IC50 [13]: 2.98 µM (active)
- IC50 [6]: > 128 µM (inactive)
- IC50 [14]: 3.67 µM (active)
- AC50 [15]: 18.8 µM (active)

Structure (SMILES): Cc1ccc(NC(=O)c2cc(S(=O)(=O)NCC3CCCO3)ccc2F)cc1 (stereo not given)
- AC50 (Caspase-6): 45.9 µM (active)

Structure (SMILES): CC(=O)N1[C@@H]2c3ccc(/C=C/c4ccccc4)c(=O)n3C[C@H]1[C@H](CO)[C@H]2C(=O)N(C)C
- AC50 [12]: 4.5 µM (active)
